Source: patent publication US5059615A, “Antimycotically active cyclopropyl-substituted azolylmethylcarbinols” (Bayer Aktiengesellschaft, priority 1988, dated 1991)
Values after ≈ are worked out from the molar mass of the structure shown.

Experiments:
Aspergillus fumigatus = assay: Antimycotic in vitro activity, serial dilution test (MIC); assay type: cell-based; conditions: Sabouraud's test medium, 28-37° C., 96 hours, read-out: MIC values in μg/ml of nutrient medium
Procedure: (§1) The in vitro tests were carried out in a serial dilution test using inocula of microorganisms of on average 5×10^4 to 10^5 microorganisms/ml of substrate. The nutrient medium used was a) for dermatophytes and Hyphomycetes Sabouraud's test medium The incubation temperature was 28° C. to 37° C., and the incubation time was 24 to 96 hours with yeasts and 96 hours with dermatophytes and Hyphomycetes.

[1] = system: Trichophyton mentagrophytes; assay: as above; assay type: cell-based; conditions: Trichophyton mentagr., Sabouraud's test medium, 28-37° C., 96 hours, read-out: MIC values in μg/ml of nutrient medium
Procedure: as §1

Candida albicans = assay: as above; assay type: cell-based; conditions: for MIC: Candida albicans, meat extract-dextrose broth, 28-37° C., 24 to 96 hours, read-out: MIC values in μg/ml of nutrient medium; for activity compared with the known compounds (A) and (B): serial dilution test, in particular against Candida albicans
Procedure: as §1, with “b)” for “a)”, “yeasts meat extract-dextrose broth.” for “dermatophytes and Hyphomycetes Sabouraud's test medium”

Torulopsis glabrata = assay: as above; assay type: cell-based; conditions: Nakaseomyces glabratus, meat extract-dextrose broth, 28-37° C., 24 to 96 hours, read-out: MIC values in μg/ml of nutrient medium
Procedure: as §1, with “b)” for “a)”, “yeasts meat extract-dextrose broth.” for “dermatophytes and Hyphomycetes Sabouraud's test medium”

Candida cells = assay: Antimycotic in vivo activity (oral) in mouse candidosis; parameters: species or system Mice of the SPF-CF type; conditions: for Action / surviving on the 6th day p.i.: 10-100 mg/kg one hour before and seven hours after infection; for Action: survival on the 6th day p.i.; for surviving on the 6th day p.i.: untreated about 5%; for action (in words) / action compared with the known compounds (C) and (D): mouse candidosis
Procedure: Mice of the SPF-CF type were infected intravenously with 1-2×10^6exponentially growing Candida cells which were suspended in physiological saline solution. One hour before and seven hours after the infection, the animals were treated orally in each case with 10-100 mg/kg of body weight of the preparation. Untreated animals died 3 to 6 days post infection. The survival rate on the 6th day post infection in untreated control animals was about 5%.

[2] = system: Trichophyton mentagrophytes; assay: Antimycotic in vivo activity (local) in the experimental guinea-pig trichophytosis model; parameters: species or system guinea-pigs of the Pirbright white strain; conditions: 2.5% strength solution
Procedure: White guinea-pigs of the Pirbright white strain were infected on the shaven, non-scarified back using a microconidia and macroconidia suspension of Trichophyton mentagrophytes. The infected animals were treated locally from. The 3rd day 1x daily p.i. using a 2.5% strength solution of the preparation according to the invention (in dimethyl sulphoxide:glycerol=1:4). In untreated animals, the typical picture of dermatophytosis with reddening, scaling and hair loss up to total integumental defect of the infection site developed in the course of 12 days p.i.

Microsporum canis = assay: Antimycotic in vitro activity, serial dilution test (MIC); assay type: cell-based; conditions: Sabouraud's test medium, 28-37° C., 96 hours, read-out: MIC values in μg/ml of nutrient medium
Procedure: as §1

MIC (Aspergillus fumigatus)	MIC [1]	MIC (Candida albicans)	MIC (Torulopsis glabrata)	MIC (Microsporum canis)	SMILES	Action (Candida cells)	surviving on the 6th day p.i. (Candida cells)	action (in words) (Candida cells)	action compared with the known compounds (C) and (D) (Candida cells)	action (in words) [2]	activity compared with the known compounds (A) and (B) (Candida albicans)
> 64 µg/mL	32 µg/mL (≈ 105 µM)	> 64 µg/mL	> 64 µg/mL	–	OC(Cn1cncn1)(Cn1cncn1)c1cccc(Cl)c1 [A, reference compound]	–	–	–	–	–	–
> 64 µg/mL	64 µg/mL (≈ 237 µM)	64 µg/mL (≈ 237 µM)	> 64 µg/mL	–	OC(Cn1cncn1)(Cn1cncn1)c1ccccc1 [B, reference compound]	–	–	–	–	–	–
–	–	–	–	–	N#CC1(C(O)(Cn2cncn2)c2ccc(F)cc2)CC1 (centres unmarked) [I-2, 1-(1-Cyanocyclopropyl)-1-(4-fluorophenyl)-2-(1,2,4-triazol-1-yl)ethanol]	+++++ (very good action = 90% surviving on the 6th day p.i.)	> 80%	good to very good action	better than the compounds (C) and (D)	good action	–
4 µg/mL (≈ 13.9 µM)	2 µg/mL (≈ 6.93 µM)	2 µg/mL (≈ 6.93 µM)	8 µg/mL (≈ 27.7 µM)	4 µg/mL (≈ 13.9 µM)	N#CC1(C(O)(Cn2cncn2)c2ccc(Cl)cc2)CC1 (centres unmarked) [I-3, 1-(1-Cyanocyclopropyl)-1-(4-chlorophenyl)-2-(1,2,4-triazol-1-yl)ethanol]	+++++ (very good action = 90% surviving on the 6th day p.i.)	> 80%	good to very good action	better than the compounds (C) and (D)	good action	better activity
–	–	–	–	–	N#CC1(C(O)(Cn2cncn2)c2ccc(F)cc2F)CC1 (centres unmarked) [I-4, 1-(1-Cyanocyclopropyl)-1-(2,4-difluorophenyl)-2-(1,2,4-triazol-1-yl)ethanol]	+++++ (very good action = 90% surviving on the 6th day p.i.)	> 80%	good to very good action	better than the compounds (C) and (D)	–	–
4 µg/mL (≈ 14.7 µM)	< 1 µg/mL	8 µg/mL (≈ 29.5 µM)	8 µg/mL (≈ 29.5 µM)	4 µg/mL (≈ 14.7 µM)	N#CC1(C(O)(Cn2ccnc2)c2ccc(F)cc2)CC1 (centres unmarked) [I-5, 1-(1-cyanocyclopropyl)-1-(4-fluorophenyl)-2-(imidazol-1-yl)ethanol]	–	–	–	–	–	better activity
–	–	–	–	–	NC(=O)C1(C(O)(Cn2cncn2)c2ccc(F)cc2)CC1 (centres unmarked) [I-7, 1-(1-Carboxamidocyclopropyl)-1-(4-fluorophenyl)-2-(1,2,4-triazol-1-yl)ethanol]	+++++ (very good action = 90% surviving on the 6th day p.i.)	> 80%	good to very good action	better than the compounds (C) and (D)	–	–
–	–	–	–	–	N#CC1(C(O)(Cn2cncn2)c2ccc(OC(F)(F)F)cc2)CC1 (centres unmarked) [I-9]	+++++ (very good action = 90% surviving on the 6th day p.i.)	> 80%	good to very good action	better than the compounds (C) and (D)	–	–
–	–	–	–	–	N#CC1(C(O)(Cn2cncn2)c2ccc(C(F)(F)F)cc2Cl)CC1 (centres unmarked) [I-11]	+++++ (very good action = 90% surviving on the 6th day p.i.)	> 80%	good to very good action	better than the compounds (C) and (D)	–	–
–	–	–	–	–	N#CC1(C(O)(Cn2cncn2)c2ccccc2Cl)CC1 (centres unmarked) [I-13]	++++ (good action = 80% surviving on the 6th day p.i.)	> 80%	good to very good action	better than the compounds (C) and (D)	–	–
4 µg/mL (≈ 13 µM)	< 1 µg/mL	2 µg/mL (≈ 6.52 µM)	16 µg/mL (≈ 52.2 µM)	4 µg/mL (≈ 13 µM)	N#CC1(C(O)(Cn2cncn2)c2ccc(Cl)cc2F)CC1 (centres unmarked) [I-14]	+++++ (very good action = 90% surviving on the 6th day p.i.)	> 80%	good to very good action	better than the compounds (C) and (D)	–	better activity
–	–	–	–	–	N#CC1(C(O)(Cn2cncn2)c2c(F)cccc2F)CC1 (centres unmarked) [I-15]	+++++ (very good action = 90% surviving on the 6th day p.i.)	> 80%	good to very good action	better than the compounds (C) and (D)	–	–
2 µg/mL (≈ 6.19 µM)	< 1 µg/mL	16 µg/mL (≈ 49.5 µM)	32 µg/mL (≈ 99 µM)	< 1 µg/mL	N#CC1(C(O)(Cn2cncn2)c2ccc(Cl)cc2Cl)CC1 (centres unmarked) [I-16]	+++++ (very good action = 90% surviving on the 6th day p.i.)	> 80%	good to very good action	better than the compounds (C) and (D)	–	better activity
